Results published in US7538084B2, “Cyclosporins” (AMR Technology, Inc., priority 2003, dated 2009).

Assays:
murine splenocytes = assay: one-way mixed lymphocyte reaction (MLR) assay, murine; type: cell-based, mouse
Procedure: (§1) The MLR assay was designed to measure ^3H-thymidine uptake by human lymphocytes or murine splenocytes that are undergoing cell proliferation in an immune response to allogeneic stimulation. The murine system uses the H2 disparate inbred mouse strains: Balb/c (H2^d) and C57B1/6 (H2^b).
Initial screens were done at a fixed value of 100 ng/ml test compound.

human T-lymphocytes = conditions: mixed lymphocyte reaction assay in human T-lymphocytes
From the text: as §1

## Cyclosporin A Methyl Vinyl Ketone (IIIa) [Compound IIIa]
Murine splenocytes; 3H-thymidine uptake, Balb/c responder splenocytes, γ-irradiated C57B1/6 stimulators, 7 point concentration-response curves
  IC50 (concentration inhibiting proliferation by 50% relative to control): 0.31 µg/mL
Murine splenocytes; mixed lymphocyte reaction assay in murine splenocytes
  immunosuppressive activity: significant immunosuppressive activity
Human T-lymphocytes
  immunosuppressive activity: significant immunosuppressive activity
